Data taken from the NIST ThermoML archive (doi:10.1007/s10765-009-0648-5).
± gives the expanded uncertainty stated by the source.

What was measured:
[1] = 101 kPa, Liquid
[2] = wn = mass fraction of the nth substance listed; details: 101 kPa, Liquid

CCC[n+]1ccn(C)c1.[Br-] [1-methyl-3-propylimidazolium bromide]
[1]
Details | mass density [kg/m3] | speed of sound [m/s]
288.15 K | 1323.47 ± 3.3 | 1699.3 ± 2.6
293.15 K | 1319.84 ± 3.3 | 1685 ± 2.6
298.15 K | 1316.22 ± 3.3 | 1672 ± 2.6
303.15 K | 1312.6 ± 3.2 | 1659.9 ± 2.6
308.15 K | 1308.97 ± 3.2 | 1648.3 ± 2.6

CCC[n+]1ccn(C)c1.[Br-] [1-methyl-3-propylimidazolium bromide] + C[S+](C)[O-]
[2]
Details | mass density, 288.15 K [kg/m3] | mass density, 293.15 K [kg/m3] | mass density, 298.15 K [kg/m3] | mass density, 303.15 K [kg/m3] | mass density, 308.15 K [kg/m3] | speed of sound, 288.15 K [m/s] | speed of sound, 293.15 K [m/s] | speed of sound, 298.15 K [m/s] | speed of sound, 303.15 K [m/s] | speed of sound, 308.15 K [m/s]
w1 = 0.0077 | 1107.07 ± 0.89 | 1102.06 ± 0.86 | 1097.05 ± 0.84 | 1092.04 ± 0.82 | 1087.03 ± 0.79 | 1520.9 ± 1.5 | 1504.2 ± 1.5 | 1487.3 ± 1.5 | 1470.4 ± 1.5 | 1453.6 ± 1.5
w1 = 0.0102 | 1107.62 ± 0.89 | 1102.61 ± 0.87 | 1097.6 ± 0.84 | 1092.6 ± 0.82 | 1087.6 ± 0.8 | 1521.5 ± 1.5 | 1504.7 ± 1.5 | 1487.8 ± 1.5 | 1470.9 ± 1.5 | 1454.2 ± 1.5
w1 = 0.012 | 1108.05 ± 0.89 | 1103.04 ± 0.87 | 1098.04 ± 0.84 | 1093.03 ± 0.82 | 1088.03 ± 0.8 | 1521.9 ± 1.5 | 1505.2 ± 1.5 | 1488.3 ± 1.5 | 1471.4 ± 1.5 | 1454.7 ± 1.5
w1 = 0.0159 | 1108.91 ± 0.9 | 1103.91 ± 0.87 | 1098.91 ± 0.85 | 1093.92 ± 0.83 | 1088.93 ± 0.8 | 1523 ± 1.5 | 1506 ± 1.5 | 1489.2 ± 1.5 | 1472.3 ± 1.5 | 1455.7 ± 1.5
w1 = 0.0203 | 1109.88 ± 0.9 | 1104.88 ± 0.88 | 1099.89 ± 0.85 | 1094.91 ± 0.83 | 1089.93 ± 0.81 | 1523.8 ± 1.6 | 1507 ± 1.5 | 1490.2 ± 1.5 | 1473.4 ± 1.5 | 1456.7 ± 1.5
w1 = 0.0252 | 1110.97 ± 0.91 | 1105.98 ± 0.89 | 1100.99 ± 0.86 | 1096.02 ± 0.84 | 1091.04 ± 0.81 | 1524.8 ± 1.6 | 1507.8 ± 1.5 | 1491 ± 1.5 | 1474.2 ± 1.5 | 1457.6 ± 1.5
w1 = 0.0297 | 1111.95 ± 0.91 | 1106.98 ± 0.89 | 1102 ± 0.87 | 1097.03 ± 0.84 | 1092.07 ± 0.82 | 1525.8 ± 1.6 | 1509.1 ± 1.5 | 1492.3 ± 1.5 | 1475.5 ± 1.5 | 1458.9 ± 1.5
w1 = 0.0356 | 1113.27 ± 0.92 | 1108.3 ± 0.9 | 1103.33 ± 0.88 | 1098.37 ± 0.85 | 1093.42 ± 0.83 | 1527 ± 1.6 | 1510.4 ± 1.5 | 1493.6 ± 1.5 | 1476.9 ± 1.5 | 1460.3 ± 1.5
w1 = 0.0423 | 1114.74 ± 0.93 | 1109.78 ± 0.91 | 1104.82 ± 0.88 | 1099.87 ± 0.86 | 1094.93 ± 0.84 | 1528.5 ± 1.6 | 1511.6 ± 1.5 | 1494.9 ± 1.5 | 1478.2 ± 1.5 | 1461.7 ± 1.5
w1 = 0.0502 | 1116.49 ± 0.94 | 1111.55 ± 0.92 | 1106.6 ± 0.89 | 1101.67 ± 0.87 | 1096.73 ± 0.85 | 1530.2 ± 1.6 | 1513.5 ± 1.6 | 1496.9 ± 1.5 | 1480.2 ± 1.5 | 1463.6 ± 1.5
w1 = 0.0599 | 1118.62 ± 0.95 | 1113.69 ± 0.93 | 1108.76 ± 0.91 | 1103.84 ± 0.88 | 1098.93 ± 0.86 | 1532.1 ± 1.6 | 1515.3 ± 1.6 | 1498.7 ± 1.5 | 1482.1 ± 1.5 | 1465.7 ± 1.5
w1 = 1 | 1323.47 ± 3.3 | 1319.84 ± 3.3 | 1316.22 ± 3.3 | 1312.6 ± 3.2 | 1308.97 ± 3.2 | 1699.3 ± 2.6 | 1685 ± 2.6 | 1672 ± 2.6 | 1659.9 ± 2.6 | 1648.3 ± 2.6

CC#N [acetonitrile]
[1]
Details | mass density [kg/m3] | speed of sound [m/s]
288.15 K | 787.376 ± 1.4 | 1319.1 ± 1.4
293.15 K | 782.007 ± 1.4 | 1299 ± 1.4
298.15 K | 776.609 ± 1.4 | 1278.8 ± 1.4
303.15 K | 771.183 ± 1.5 | 1258.5 ± 1.4
308.15 K | 765.725 ± 1.5 | 1238.4 ± 1.4

CC#N [acetonitrile] + CCC[n+]1ccn(C)c1.[Br-]
[2], w2 = 0
Details | mass density [kg/m3] | speed of sound [m/s]
288.15 K | 787.376 ± 1.4 | 1319.1 ± 1.4
293.15 K | 782.007 ± 1.4 | 1299 ± 1.4
298.15 K | 776.609 ± 1.4 | 1278.8 ± 1.4
303.15 K | 771.183 ± 1.5 | 1258.5 ± 1.4
308.15 K | 765.725 ± 1.5 | 1238.4 ± 1.4

C[S+](C)[O-] [dimethyl sulfoxide]
[1]
Details | mass density [kg/m3] | speed of sound [m/s]
288.15 K | 1105.34 ± 0.88 | 1519.1 ± 1.5
293.15 K | 1100.31 ± 0.85 | 1502.2 ± 1.5
298.15 K | 1095.28 ± 0.83 | 1485.2 ± 1.5
303.15 K | 1090.25 ± 0.81 | 1468.3 ± 1.5
308.15 K | 1085.23 ± 0.78 | 1451.5 ± 1.5

C[S+](C)[O-] [dimethyl sulfoxide] + CCC[n+]1ccn(C)c1.[Br-]
[2], w2 = 0
Details | mass density [kg/m3] | speed of sound [m/s]
288.15 K | 1105.34 ± 0.88 | 1519.1 ± 1.5
293.15 K | 1100.31 ± 0.85 | 1502.2 ± 1.5
298.15 K | 1095.28 ± 0.83 | 1485.2 ± 1.5
303.15 K | 1090.25 ± 0.81 | 1468.3 ± 1.5
308.15 K | 1085.23 ± 0.78 | 1451.5 ± 1.5

CN(C)C=O [dimethylformamide]
[1]
Details | mass density [kg/m3] | speed of sound [m/s]
288.15 K | 953.442 ± 0.6 | 1496.6 ± 1.5
293.15 K | 948.685 ± 0.62 | 1477.3 ± 1.5
298.15 K | 943.917 ± 0.64 | 1457.8 ± 1.5
303.15 K | 939.142 ± 0.67 | 1438.4 ± 1.5
308.15 K | 934.357 ± 0.69 | 1419 ± 1.5

CN(C)C=O [dimethylformamide] + CCC[n+]1ccn(C)c1.[Br-]
[2], w2 = 0
Details | mass density [kg/m3] | speed of sound [m/s]
288.15 K | 953.442 ± 0.6 | 1496.6 ± 1.5
293.15 K | 948.685 ± 0.62 | 1477.3 ± 1.5
298.15 K | 943.917 ± 0.64 | 1457.8 ± 1.5
303.15 K | 939.142 ± 0.67 | 1438.4 ± 1.5
308.15 K | 934.357 ± 0.69 | 1419 ± 1.5
